From BindingDB's records for doi:10.1016/0014-2999(88)90158-6 (Pharmakologisches Institut, 1988)

Experiments:
Adenosine receptor A1 = biological target: T1, Adenosine receptor A1 (Rattus norvegicus, UniProt P25099)
T1 sequence (P25099 whole entry): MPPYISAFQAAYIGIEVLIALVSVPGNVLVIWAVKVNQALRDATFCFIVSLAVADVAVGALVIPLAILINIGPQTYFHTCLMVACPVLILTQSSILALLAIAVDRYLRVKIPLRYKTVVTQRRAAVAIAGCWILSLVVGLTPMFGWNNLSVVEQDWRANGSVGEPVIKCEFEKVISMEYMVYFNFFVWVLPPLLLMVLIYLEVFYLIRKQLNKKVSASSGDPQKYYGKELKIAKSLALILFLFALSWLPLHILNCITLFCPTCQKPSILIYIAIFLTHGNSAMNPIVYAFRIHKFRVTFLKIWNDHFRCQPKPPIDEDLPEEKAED

Adenosine receptor A2a = Adenosine receptor A2a (Homo sapiens, UniProt P29274)
Adenosine receptor A2a, sequence (P29274 whole entry): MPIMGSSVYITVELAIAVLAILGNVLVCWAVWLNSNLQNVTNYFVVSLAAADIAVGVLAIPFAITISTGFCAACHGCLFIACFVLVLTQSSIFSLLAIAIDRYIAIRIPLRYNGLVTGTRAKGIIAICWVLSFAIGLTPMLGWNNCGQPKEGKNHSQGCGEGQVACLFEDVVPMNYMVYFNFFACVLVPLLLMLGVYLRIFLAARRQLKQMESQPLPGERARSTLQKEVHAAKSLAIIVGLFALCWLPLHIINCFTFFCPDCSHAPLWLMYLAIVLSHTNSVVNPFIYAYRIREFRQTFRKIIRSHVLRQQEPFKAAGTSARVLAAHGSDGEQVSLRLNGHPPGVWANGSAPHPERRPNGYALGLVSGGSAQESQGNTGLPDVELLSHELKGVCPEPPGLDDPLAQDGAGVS

| Ki (Adenosine receptor A1) | Ki (Adenosine receptor A2a) | Compound |
| --- | --- | --- |
| 4.8 µM | > 10 µM | OC[C@@H]1CC[C@H](n2cnc3c(NC4CCCCC4)ncnc32)O1 [ddCHA] |
|  | > 10 µM | OC[C@H]1CC[C@H](n2cnc3c(NC4CCCCC4)ncnc32)O1 [alpha-ddCHA] |
